Several values for one entry are separate records, joined by “and”; a condition that tells them apart may be missing. Identical values can stand only once. Like-named read-outs stand apart in the source and are kept apart here.
Key:
[1] = test system: Human Ovarian Carcinoma Cisplatin Resistant (A2780cisR) cell line; experiment: MTT cytotoxicity, A2780cisR; type: cell-based; conditions: 72 h exposure, mean ± SD
Description: (§1) Human ovarian carcinoma (A2780 and A2780cisR) cell lines were obtained from the European Collection of Cell Cultures. The Human Embryonic Kidney 293T (HEK 293T) cell line was obtained from the ATCC (Sigma, Buchs, Switzerland). Penicillin–streptomycin, RPMI 1640 GlutaMAX (where RPMI = Roswell Park Memorial Institute), and DMEM GlutaMAX media (where DMEM = Dulbecco’s modified Eagle medium) were obtained from Life Technologies, and fetal bovine serum (FBS) was obtained from Sigma. The cells were cultured in RPMI 1640 GlutaMAX (A2780 and A2780cisR) and DMEM GlutaMAX (HEK 293T) media containing 10% heat-inactivated FBS and 1% penicillin–streptomycin at 37 °C and CO2 (5%). The A2780cisR cell line was routinely treated with cisplatin (2 μM) in the media to maintain cisplatin resistance. The cytotoxicity was determined using the 3-(4,5-dimethyl-2-thiazolyl)-2,5-diphenyl-2H-tetrazolium bromide (MTT) assay.[42] Cells were seeded in flat-bottomed 96-well plates as a suspension in a prepared medium (100 μL aliquots and approximately 4300 cells/well) and preincubated for 24 h. Stock solutions of compounds were prepared in DMSO and were diluted in the medium. The solutions were sequentially diluted to give a final DMSO concentration of 0.5% and a final compound concentration range of 0–200 μM. Cisplatin was tested as a positive (0–100 μM) control. The compounds were placed in the preincubated 96-well plates in 100 μL aliquots, and the plates were incubated for a further 72 h. MTT (20 μL, 5 mg/mL in Dulbecco’s phosphate buffered saline) was placed in the cells, and the plates were incubated for a further 4 h. The culture medium was aspirated, and the purple formazan crystals, formed by the mitochondrial dehydrogenase activity of vital cells, were dissolved in DMSO (100 μL/well). The absorbance of the resulting solutions, directly proportional to the number of surviving cells, was quantified at 590 nm using a SpectroMax M5e multimode microplate reader (using SoftMax Pro software, version 6.2.2). The percentage of surviving cells was calculated from the absorbance of wells corresponding to the untreated control cells. The reported IC50 values are based on the means from two independent experiments, each comprising four tests per concentration level.

[2] = Octanol–water partition coefficient (shake-flask, UV–vis); type: physicochemical; conditions: T = 21 °C
Method: The solubility of the complexes in D2O was assessed using ^1H NMR spectroscopy (see Table 1 and the Experimental Section for details). […] Data from the literature for the related nonfunctionalized complexes [2′,3′]CF3SO3 are compiled in Table 1 for comparison.[11] The octanol–water partition coefficients (Log Pow) were measured using a UV–vis method and fall within the −0.2 to +1.2 range (Table 1). […] For instance, Log Pow values of 1.07 and 0.65 are obtained for the geometric isomers [9]CF3SO3 and [10]CF3SO3, respectively. […]
Determination of partition coefficients (Log P ow)
Partition coefficients ( Pow; IUPAC: K D partition constant, 7,8 defined as Pow = corg/caq, where corg and caq are the molar concentrations of the selected compound in the organic and aqueous phases, respectively, were determined by the shake-flask method and UV-Vis measurements. 9 Values of Log Pow for diiron complexes are compiled in Table 2. All the operations were carried out at 21±1 °C. De -ionised water and 1-octanol were mixed and vigorously stirred for 24 hours at room temperature to allow saturation of both phases, then separated by centrifugation and used for the following experiments. A solution of the selected Fe compound in the organic phase (V = 5 mL) was prepared and its UV-Vis spectrum was recorded. An aliquot of the solution (Vorg = 1.5 mL) was then transferred into a test tube and the aqueous phase (Vorg = Vaq = 1.5 mL) was added. The mixture was vigorously stirred for 20 minutes and the resulting emulsion was centrifuged (5000 rpm, 10’). […]
(§2) the organic phase was recorded. The procedure was repeated three times for each compound. The partition coefficient was then calculated as PPow = AorgA0,org − Aorg, where A0,org and Aorg are the absorbance values in the organic phase, respectively before and after mixing with the aqueous phase. 9 UV-Vis measurements were carried out using 1 cm PMMA cuvettes. The wavelength of the maximum absorption of each compound was used for UV-Vis quantification.

[3] = test system: Human Embryonic Kidney 293T (HEK 293T) cell line; experiment: MTT cytotoxicity, HEK 293T; type: cell-based; conditions: 72 h exposure, mean ± SD
Description: as §1

[4] = test system: Human Ovarian Carcinoma (A2780) cell line; experiment: MTT cytotoxicity, A2780; type: cell-based; conditions: 72 h exposure, MTT, mean ± SD
Description: as §1

COX-2 enzyme = target: T1, COX-2 enzyme (Homo sapiens, UniProt P35354); experiment: COX-2 enzyme inhibition assay (fluorimetric); type: biochemical; conditions: residual enzyme activity, 25 °C, pH 8, mean ± SD
T1 construct: purchased Cayman Chemical Company
T1 sequence (P35354 18-604): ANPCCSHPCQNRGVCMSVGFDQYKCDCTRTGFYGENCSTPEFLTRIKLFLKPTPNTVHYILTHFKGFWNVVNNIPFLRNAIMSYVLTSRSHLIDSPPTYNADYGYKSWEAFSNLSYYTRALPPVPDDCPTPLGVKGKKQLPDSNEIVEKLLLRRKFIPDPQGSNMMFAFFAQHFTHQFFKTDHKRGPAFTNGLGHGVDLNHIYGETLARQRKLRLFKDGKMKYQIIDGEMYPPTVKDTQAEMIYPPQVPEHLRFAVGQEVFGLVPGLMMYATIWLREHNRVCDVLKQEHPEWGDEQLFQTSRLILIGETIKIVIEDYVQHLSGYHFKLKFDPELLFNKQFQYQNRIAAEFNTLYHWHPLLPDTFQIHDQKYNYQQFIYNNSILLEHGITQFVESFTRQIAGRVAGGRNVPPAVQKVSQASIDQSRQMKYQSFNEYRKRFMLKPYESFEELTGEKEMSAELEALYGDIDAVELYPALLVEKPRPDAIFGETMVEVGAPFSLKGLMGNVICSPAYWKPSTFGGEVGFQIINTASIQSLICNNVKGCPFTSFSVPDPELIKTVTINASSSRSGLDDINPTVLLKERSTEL
Method: Next, the possible role of the bioactive fragment in the complexes was studied.
The IC50 value was obtained using GraphPad Prism 7 software. All of the inhibitor assays were performed at least in triplicate.

[5] = Stability in D2O/DMSO at 37 °C by 1H NMR; type: physicochemical; conditions: for stability (%), residual percent of complex / stability (%), residual percentage of the complex: D2O/DMSO 2/1 v/v; for stability (%), total percentage of diiron complexes with a chlorambucil-like group: D2O/DMSO 1/1 v/v
Method: Conversely, [3–7]CF3SO3, containing either {Aryl–OCOAsp} or {Aryl-NHCOAsp} moieties, were stable under the same conditions. […] Complete conversion into the bis-hydroxide [8^2OH]^+ was achieved within 72 h. Similarly, [9,10]CF3SO3 undergo activation of the {C–Cl} bonds to give mixtures of the partially Cl/OH substituted species [9^OH]^+ and [10^OH]^+ and the fully substituted species [9^2OH]^+ and [10^2OH]^+.

[6] = test system: Human Embryonic Kidney 293T (HEK 293T) cell line; conditions: 72 h exposure; cited from earlier work
[7] = test system: Human Ovarian Carcinoma Cisplatin Resistant (A2780cisR) cell line; conditions: 72 h exposure, cited from earlier work
[8] = test system: Human Ovarian Carcinoma (A2780) cell line; conditions: 72 h exposure, cited from earlier work
[9] = Solubility in D2O by 1H NMR; type: physicochemical; conditions: Me2SO2 internal standard, T = 21 °C
Method: The solubility of the complexes in D2O was assessed using ^1H NMR spectroscopy (see Table 1 and the Experimental Section for details). […] Data from the literature for the related nonfunctionalized complexes [2′,3′]CF3SO3 are compiled in Table 1 for comparison.[11] The octanol–water partition coefficients (Log Pow) were measured using a UV–vis method and fall within the −0.2 to +1.2 range (Table 1). […] For instance, Log Pow values of 1.07 and 0.65 are obtained for the geometric isomers [9]CF3SO3 and [10]CF3SO3, respectively.

[10] = Stability in cell culture medium at 37 °C by NMR; type: physicochemical; conditions: after 72 h
Method: Complexes [3]CF3SO3, [5]CF3SO3, and [8]CF3SO3 were selected for an evaluation of their stability in the culture medium. Compounds were dissolved in DMSO-d6, and these solutions were diluted with the cell culture medium and stored at 37 °C. According to NMR spectroscopy, progressive release of the bioactive fragment occurred over 72 h, affording [3′]^+ from [3]CF3SO3 and [5′]^+ from [5]CF3SO3 (Figures S41 and S42). […] Overall, these findings indicate that the diiron scaffold decorated with biofunctionalized vinyliminium ligands is robust in aqueous media, with a tendency to progressively release the bioactive moiety in the medium used in cytotoxicity studies.
[8]CF3SO3, after 24 h: [3']+ and chlorambucil species ([8OH]+ + [8 2OH]+) (ratio 5:2). From [8]CF3SO3, after 72 h:
[3']+ and chlorambucil species ([82OH]+) (ratio 7:2).
Determination of partition coefficients (Log P ow) […]
as §2, with “The procedure was repeated three times for each compound.” left out, “9 UV-Vis measurements were carried out using 1 cm PMMA cuvettes.” left out

cancer cell lines = conditions: cited from earlier work
[11] = deuterated aqueous medium, 37 °C

Row | Log Pow [2] | IC50 (COX-2 enzyme) | stability (%), residual percent of complex ([5]; 24 h at 37 °C) | solubility [9] | Compound | IC50 [1] | IC50 [3] | IC50 [4] | also measured
1 | 0.24 ± 0.01 | 71 ± 1 µM | 81% | – | [Fe2Cp2(CO)(μ-CO){μ-η^1:η^3-Cγ(3-C6H4OC(=O)C6H4OC(=O)Me)CβHCαNMe2}]CF3SO3 [[3]CF3SO3] | 21 ± 5 µM | 42 ± 6 µM | 24 ± 5 µM | stability (%), residual percentage of the complex ([5]; 72 h at 37 °C): 57%
2 | –0.19 ± 0.01 | 20 ± 2 µM | 70% | – | [Fe2Cp2(CO)(μ-CO){μ-η^1:η^3-Cγ(4-C6H4NHC(=O)C6H4OC(=O)Me)CβHCαNMe2}]CF3SO3 [[7]CF3SO3] | 87 ± 10 µM | > 100 µM | 71 ± 14 µM | –
3 | – | – | – | – | CC(=O)Oc1ccccc1C(=O)O [aspirin, acetylsalicylic acid] | – | – | – | IC50 [6]: > 200 µM; IC50 [7]: > 200 µM; IC50 [8]: > 200 µM
4 | 1.2 ± 0.2 | – | – | <1 × 10^–4 mol L^–1 | [Fe2Cp2(CO)(μ-CO){μ-η^1:η^3-Cγ(3-C6H4OC(=O)(CH2)3C6H4N(CH2CH2Cl)2)CβHCαNMe2}]CF3SO3 [[8]CF3SO3] | 23 ± 3 µM | 20 ± 9 µM | 4.7 ± 0.4 µM | stability (%), total percentage of diiron complexes with a chlorambucil-like group ([5]; 24 h at 37 °C): 84%; stability (%), total percentage of diiron complexes with a chlorambucil-like group ([5]; 72 h at 37 °C): 77%; stability of the linkage to the bioactive fragment (hydrolysis) [5, 11]: did not undergo hydrolysis; time to complete conversion into the bis-hydroxide (Cl/OH exchange) [5, 11]: ≤ 72 h
5 | – | – | – | – | [Fe2Cp2(CO)2(μ-CO){μ-CNMe(R)}]CF3SO3 (R = Xyl = 2,6-C6H3Me2) [[1b]CF3SO3] | – | – | – | IC50 [8]: 9.3 ± 0.7 µM
6 | –0.10 ± 0.01 | 10 ± 2 µM | 69% | – | [Fe2Cp2(CO)(μ-CO){μ-η^1:η^3-Cγ(3-C6H4NHC(=O)C6H4OC(=O)Me)CβHCαNMe2}]CF3SO3 [[5]CF3SO3] | 45 ± 1 µM | 89.9 ± 0.3 µM | 43 ± 6 µM | dissociation of the bioactive fragment [10]: complete dissociation
7 | – | – | – | – | C#CCOC(=O)c1ccccc1OC(C)=O [ALK^A1] | – | – | – | activity toward cancer cell lines (cancer cell lines): absence of activity
8 | 0.65 and 0.65 ± 0.02 | – | – | <1 × 10^–4 mol L^–1 | [Fe2Cp2(CO)(μ-CO){μ-η^1:η^3-Cγ(4-C6H4NHC(=O)(CH2)3C6H4N(CH2CH2Cl)2)CβHCαNMe2}]CF3SO3 [[10]CF3SO3] | 15 ± 5 µM | 30 ± 1 µM | 6.4 ± 1.4 µM | stability (%), total percentage of diiron complexes with a chlorambucil-like group ([5]; 24 h at 37 °C): 93%; stability (%), total percentage of diiron complexes with a chlorambucil-like group ([5]; 72 h at 37 °C): 85%
9 | 0.80 ± 0.02 | 66 ± 2 µM | 91% | <1 × 10^–4 mol L^–1 | [Fe2Cp2(CO)(μ-CO){μ-η^1:η^3-Cγ(3-C6H4NHC(=O)C6H4OC(=O)Me)CβHCαNMe(Xyl)}]CF3SO3 [[6]CF3SO3] | 7 ± 2 µM | 7.2 ± 0.9 µM | 6.5 ± 0.8 µM | –
10 | – | – | – | – | [Fe2Cp2(CO)2(μ-CO){μ-CNMe(R)}]CF3SO3 (R = Me) [[1a]CF3SO3] | – | – | – | IC50 [8]: > 200 µM; IC50 A2780 [8]: not active
11 | – | – | – | – | N.N.[Cl][Pt][Cl] [cisplatin, reference compound] | 7.9 ± 0.1 µM | 2.6 ± 0.4 µM | 0.6 ± 0.1 µM | –
12 | – | – | – | – | O=C(O)CCCc1ccc(N(CCCl)CCCl)cc1 [chlorambucil] | – | – | – | IC50 ([7]; ref 22b): 25 ± 4 µM; IC50 ([8]; ref 22b): 5.2 ± 1.6 µM
13 | 0.40 ± 0.01 | 84 ± 2 µM | 85% | <1 × 10^–4 mol L^–1 | [Fe2Cp2(CO)(μ-CO){μ-η^1:η^3-Cγ(CH2OC(=O)C6H4OC(=O)Me)CβHCαNMe(Xyl)}]CF3SO3 [[2]CF3SO3] | 14 ± 1 µM | 9.2 ± 0.5 µM | 13 ± 2 µM | stability (%), residual percentage of the complex ([5]; 72 h at 37 °C): 69%; release of aspirin from the linkage ([5]; deuterated aqueous medium, 37 °C, 24 h): approximately 20%
